Tests used:
[1] = Solubility in n-hexane (stir 1 hour, centrifuge, weigh dried residue of supernatant); assay type: physicochemical; settings: for solubility in n-hexane: room temperature (25° C.), stirred 1 hour
Experimental: The solubility in n-hexane at 25° C. is determined as follows. In some detail, a predetermined amount of n-hexane is added to a fullerene derivative. The mixture is then stirred at 25° C. for 1 hour. The resulting slurry is then subjected to centrifugal separation. The solution is then decanted. The solvent is then distilled off the resulting supernatant liquid. The resulting precipitate is dried in vacuo, and then measured for weight. Thus, the solubility in n-hexane at 25° C. is calculated.
To 100 mg of C60[CH2Si(CH3)3]5H was added 0.5 ml of n-hexane. The mixture was then stirred at 25° C. for 1 hour. The slurry was purified, and then subjected to centrifugal separation by a centrifugal separator. The resulting supernatant liquid was withdrawn. The solvent was then distilled off. The residue was then dried in vacuo. The weight of the residue was then measured. The result was 32.5 mg.

[2] = Stability of the solid at room temperature in the air; assay type: physicochemical; settings: solid (brown powder)

Substance | solubility in n-hexane [1] | solubility in n-hexane measured at 50° C. ([1]; 50° C., otherwise same conditions as in Example 1) | stability when solid [2]
(C6H5)5C60H | less than 0.001 mg/ml | – | –
(CH3)5C60H | less than 0.001 mg/ml | – | –
C60[CH2Si(CH3)3]2 | about 0.05 mg/ml | about 0.2 mg/ml | –
C60[CH2Si(CH3)3]5H | 65 mg/mL | – | stable at room temperature in the air
C60{CH2Si(CH3)3}3H | 11 mg/mL | – | stable at room temperature in the air
Rh[C60{CH2Si(CH3)3}3](1,5-cyclooctadiene) | 5.0 mg/mL | – | –

Source: patent US7202374B2, “Fullerene derivatives and their metal complexes” (Mitsubishi Chemical Corporation, priority 2002, dated 2007)
